Measured values from publication PMC10458253, “Unraveling the In Vitro Toxicity Profile of Psychedelic 2C Phenethylamines and Their N-Benzylphenethylamine (NBOMe) Analogues” (Pharmaceuticals, 2023).
Counter-ions that a name gives are not always drawn.

Tests used:
[1] = pH 7.4; cited from earlier work
[2] = tested on: differentiated SH-SY5Y cells; assay: Intracellular ROS (DCFH-DA probe), differentiated SH-SY5Y; type: cell-based; conditions: positive control, 200 µM, 24 h, vs negative control cells
Description: Reactive oxygen species (ROS) production was evaluated using the 2′,7′-dichlorofluorescein diacetate (DCFH-DA) probe. In the cytoplasm, DCFH-DA is hydrolyzed producing 2′,7′-dichlorodihydrofluorescein (DCFH) that, in the presence of ROS, is easily oxidized to the highly fluorescent 2′,7′-dichlorofluorescein (DCF).
(§1) ROS production was evaluated by using the well-known membrane permeable fluorescent probe 2′,7′-dichlorofluorescein diacetate (DCFH-DA). Both cell lines were seeded in 96-well cell culture plates, and pre-incubated with 10 µM DCFH-DA, protected from light, at 37 °C, in a 5% CO2–95% air atmosphere. After 30 min, DCFH-DA was removed, and the cells were exposed to the drugs (0–500 µM for SH-SY5Y cells and 0–1000 µM for HepG2 cells), at 37 °C, in a 5% CO2–95% air atmosphere. Subsequently, after 24 h of exposure, the fluorescence was measured at 485 nm excitation and 530 nm emission wavelengths in a multi-well plate reader (PowerWaveX BioTek Instruments, Winooski, VT, USA). Additionally, tert-butyl hydroperoxide (200 µM, 24 h) was used as a positive control for ROS overproduction. The results were expressed as percentage of control cells. At least four independent experiments were performed, in triplicate.

HepG2 cells = assay: Intracellular ROS (DCFH-DA probe), HepG2; type: cell-based; conditions: HepG2, positive control, 200 µM, 24 h, vs control cells (0 µM)
Description: as §1

[3] = PAMPA-BBB permeability assay
Excerpt: In the present study we used a Parallel Artificial Membrane Permeation Assay (PAMPA) with a membrane mimicking the BBB phospholipidic composition (PAMPA-BBB) to evaluate and predict passive, transcellular permeability of the mescaline-NBOMe, 25B-NBOMe and 25N-NBOMe drugs.
The PiON inc database software was used for data analysis.

SMILES | −Log Pe ± SD [3] | further results
CC(=O)Nc1ccccc1 [Acetanilide] |  | CHI (IAM) [1]: 11.57
CC(C)(C)OO [t-BHP, tert-butyl hydroperoxide] |  | ROS intracellular levels [2]: significant increase in ROS intracellular levels; ROS intracellular levels (HepG2 cells): significant increase in ROS levels
C=C[C@H]1C[N@@]2CC[C@H]1C[C@@H]2[C@@H](O)c1ccnc2ccc(OC)cc12 [Quinidine. HCl, reference compound] | 4.8 ± 0.39 | 
CC(=O)[C@H]1CC[C@H]2[C@@H]3CCC4=CC(=O)CC[C@]4(C)[C@H]3CC[C@]12C [Progesterone, reference compound] | 4.5 ± 0.44 | 
CC(C)NCC(O)COc1cccc2ccccc12 (stereo not drawn) [Propanolol. HCl, reference compound] | 4.6 ± 0.42 | 
